Measurements as given in ChEMBL document CHEMBL4229334, “Fluoroquinolone derivatives and their anti-tubercular activities” (Eur J Med Chem, 2018).
≈ marks a conversion by molar mass, not a printed value.

Assays:
Format in all cases: functional
[1] = tested on: Mycobacterium tuberculosis; assay: Antibacterial activity against multidrug resistant Mycobacterium tuberculosis after 7 days by two fold dilution assay; details: 168 h
[2] = tested on: Mycobacterium tuberculosis; assay: Antibacterial activity against multidrug resistant Mycobacterium tuberculosis ATTC 27294 by Alamar Blue assay
[3] = tested on: Mycobacterium tuberculosis; assay: Antitubercular activity against rifampicin-resistant Mycobacterium tuberculosis after 21 days by two fold agar dilution method; details: 504 h
[4] = tested on: Mycobacterium tuberculosis; assay: Potency index, ratio of MIC for LVFX to MIC for test compound for antitubercular activity against rifampicin-resistant Mycobacterium tuberculosis after 21 days by two fold agar dilution method
[5] = tested on: Mycobacterium tuberculosis; assay: Potency index, ratio of MIC for GTFX to MIC for test compound for antitubercular activity against rifampicin-resistant Mycobacterium tuberculosis after 21 days by two fold agar dilution method
[6] = tested on: Mycobacterium tuberculosis; assay: Potency index, ratio of MIC for rifampicin to MIC for test compound for antitubercular activity against rifampicin-resistant Mycobacterium tuberculosis after 21 days by two fold agar dilution method
[7] = tested on: Mycobacterium tuberculosis; assay: Potency index, ratio of MIC for isoniazid to MIC for test compound for antitubercular activity against rifampicin-resistant Mycobacterium tuberculosis after 21 days by two fold agar dilution method

Q: Which MIC [1] does the source give for `CO[C@H]1/C=C/O[C@@]2(C)Oc3c(C)c(O)c4c(O)c(c(/C=N/N5CCN(C)CC5)c(O)c4c3C2=O)NC(=O)/C(C)=C\C=C\[C@H](C)[C@H](O)[C@@H](C)[C@@H](O)[C@@H](C)[C@H](OC(C)=O)[C@@H]1C` [RIFAMPIN] here?
A: The MIC was 32 µg/mL (≈ 38.9 µM).

Q: `COc1c(N2CCNC(C)C2)c(F)cc2c(=O)c(C(=O)O)cn(C3CC3)c12` (stereo not given) [GATIFLOXACIN] was tested. Which MIC [2] did it give?
A: Its MIC is 0.1 to 0.6 µg/mL (≈ 0.266 to 1.6 µM).

Q: For `NNC(=O)c1ccncc1` [ISONIAZID], which MIC [1] is on record?
A: The MIC was greater than 128 µg/mL.

Q: For `C[C@H]1COc2c(N3C[C@H]4CCCN[C@H]4C3)c(F)cc3c(=O)c(C(=O)O)cn1c23`, which MIC [3] is on record?
A: Its MIC is 0.2 to 1.7 µg/mL (≈ 0.516 to 4.39 µM).

Q: What about the Ratio [4] of the same compound?
A: The Ratio was “>=2.7 - 250”.

Q: What about the Ratio [5] of the same compound?
A: The Ratio was “>=2.7 - 250”.

Q: What about the Ratio [6] of the same compound?
A: Its Ratio is “>=2.7 - 250”.

Q: And the Ratio [7]?
A: Its Ratio is “>=2.7 - 250”.

Q: For `COc1c(N2C[C@@H]3CCCN[C@@H]3C2)c(F)cc2c(=O)c(C(=O)O)cn(C3CC3)c12` [MOXIFLOXACIN], which MIC [2] is on record?
A: Its MIC is 0.1 to 0.6 µg/mL (≈ 0.249 to 1.49 µM).

Q: Which MIC [2] does the source give for `O=C(O)c1cn(C2CC2)c2cc(N3CCNCC3)c(F)cc2c1=O` [CIPROFLOXACIN] here?
A: Its MIC is 0.1 to 0.6 µg/mL (≈ 0.302 to 1.81 µM).
